# Data published in the supplement of paper PMC8882468.
# Tested on: HCI-016 (organoid from a triple-negative breast cancer xenograft)
# Assay: CTG-3D luminescence at 96 h relative to day-0 seeding control (ratio to day 0); higher = more growth / less cytotoxicity; PDxO 3D drug screen, 96 h, CTG-3D normalised to day-0 seeding control.
# Conditions: 12.5 pM; days in culture: 153
row,Structure (SMILES),CTG-3D luminescence at 96 h
1,C[C@@H]1COCCN1c1cc(C2([S@](C)(=N)=O)CC2)nc(-c2cc[nH]c3nccc2-3)n1 [ceralasertib],3.13
2,CCN1CCN(Cc2ccc(Nc3ncc(F)c(-c4cc(F)c5nc(C)n(C(C)C)c5c4)n3)nc2)CC1 [abemaciclib],2.82
3,NC1(C(=O)N[C@@H](CCO)c2ccc(Cl)cc2)CCN(c2nc[nH]c3nccc2-3)CC1 [capivasertib],3.06
4,CC(C)n1nc(-c2ccc3oc(N)nc3c2)c2c(N)ncnc21 [sapanisertib],2.9
5,O=C(c1ccc(F)c(F)c1Nc1ccc(I)cc1F)N1CC(O)([C@@H]2CCCCN2)C1 [cobimetinib],3.32
6,C[C@H](NC(=O)CCC(F)(F)F)C(=O)N[C@@H]1C(=O)N(CCO)c2ncccc2-c2ccccc21 [crenigacestat],2.83
7,Cc1cc(Nc2ncc(Cl)c(Nc3ccccc3S(=O)(=O)C(C)C)n2)c(OC(C)C)cc1C1CCNCC1 [ceritinib],3.1
8,CS(=O)(=O)c1ccc(C(=O)Nc2ccc(Cl)c(-c3ccccn3)c2)c(Cl)c1 [vismodegib],3.24
9,NC(=O)c1cccc2cn(-c3ccc([C@@H]4CCCNC4)cc3)nc12 [niraparib],2.7

# Same assay, conditions: 12.5 pM; days in culture: 172
row,Structure (SMILES),CTG-3D luminescence at 96 h
1,C[C@@H]1COCCN1c1cc(C2([S@](C)(=N)=O)CC2)nc(-c2cc[nH]c3nccc2-3)n1 [ceralasertib],2.3
2,CCN1CCN(Cc2ccc(Nc3ncc(F)c(-c4cc(F)c5nc(C)n(C(C)C)c5c4)n3)nc2)CC1 [abemaciclib],2.12
3,NC1(C(=O)N[C@@H](CCO)c2ccc(Cl)cc2)CCN(c2nc[nH]c3nccc2-3)CC1 [capivasertib],2.38
4,CC(C)n1nc(-c2ccc3oc(N)nc3c2)c2c(N)ncnc21 [sapanisertib],1.87
5,O=C(c1ccc(F)c(F)c1Nc1ccc(I)cc1F)N1CC(O)([C@@H]2CCCCN2)C1 [cobimetinib],2.03
6,C[C@H](NC(=O)CCC(F)(F)F)C(=O)N[C@@H]1C(=O)N(CCO)c2ncccc2-c2ccccc21 [crenigacestat],2.16
7,Cc1cc(Nc2ncc(Cl)c(Nc3ccccc3S(=O)(=O)C(C)C)n2)c(OC(C)C)cc1C1CCNCC1 [ceritinib],2.65
8,CS(=O)(=O)c1ccc(C(=O)Nc2ccc(Cl)c(-c3ccccn3)c2)c(Cl)c1 [vismodegib],2.24
9,NC(=O)c1cccc2cn(-c3ccc([C@@H]4CCCNC4)cc3)nc12 [niraparib],2.42

# Same assay, conditions: 12.5 pM; days in culture: 190
row,Structure (SMILES),CTG-3D luminescence at 96 h
1,C[C@@H]1COCCN1c1cc(C2([S@](C)(=N)=O)CC2)nc(-c2cc[nH]c3nccc2-3)n1 [ceralasertib],1.54
2,CCN1CCN(Cc2ccc(Nc3ncc(F)c(-c4cc(F)c5nc(C)n(C(C)C)c5c4)n3)nc2)CC1 [abemaciclib],1.98
3,NC1(C(=O)N[C@@H](CCO)c2ccc(Cl)cc2)CCN(c2nc[nH]c3nccc2-3)CC1 [capivasertib],1.81
4,CC(C)n1nc(-c2ccc3oc(N)nc3c2)c2c(N)ncnc21 [sapanisertib],1.66
5,O=C(c1ccc(F)c(F)c1Nc1ccc(I)cc1F)N1CC(O)([C@@H]2CCCCN2)C1 [cobimetinib],1.55
6,C[C@H](NC(=O)CCC(F)(F)F)C(=O)N[C@@H]1C(=O)N(CCO)c2ncccc2-c2ccccc21 [crenigacestat],1.45
7,Cc1cc(Nc2ncc(Cl)c(Nc3ccccc3S(=O)(=O)C(C)C)n2)c(OC(C)C)cc1C1CCNCC1 [ceritinib],1.83
8,CS(=O)(=O)c1ccc(C(=O)Nc2ccc(Cl)c(-c3ccccn3)c2)c(Cl)c1 [vismodegib],2.13
9,NC(=O)c1cccc2cn(-c3ccc([C@@H]4CCCNC4)cc3)nc12 [niraparib],1.64

# Same assay, conditions: 12.5 pM; days in culture: 199
row,Structure (SMILES),CTG-3D luminescence at 96 h
1,C[C@@H]1COCCN1c1cc(C2([S@](C)(=N)=O)CC2)nc(-c2cc[nH]c3nccc2-3)n1 [ceralasertib],1.42
2,CCN1CCN(Cc2ccc(Nc3ncc(F)c(-c4cc(F)c5nc(C)n(C(C)C)c5c4)n3)nc2)CC1 [abemaciclib],1.89
3,NC1(C(=O)N[C@@H](CCO)c2ccc(Cl)cc2)CCN(c2nc[nH]c3nccc2-3)CC1 [capivasertib],1.58
4,CC(C)n1nc(-c2ccc3oc(N)nc3c2)c2c(N)ncnc21 [sapanisertib],1.5
5,O=C(c1ccc(F)c(F)c1Nc1ccc(I)cc1F)N1CC(O)([C@@H]2CCCCN2)C1 [cobimetinib],1.61
6,C[C@H](NC(=O)CCC(F)(F)F)C(=O)N[C@@H]1C(=O)N(CCO)c2ncccc2-c2ccccc21 [crenigacestat],1.48
7,Cc1cc(Nc2ncc(Cl)c(Nc3ccccc3S(=O)(=O)C(C)C)n2)c(OC(C)C)cc1C1CCNCC1 [ceritinib],1.55
8,CS(=O)(=O)c1ccc(C(=O)Nc2ccc(Cl)c(-c3ccccn3)c2)c(Cl)c1 [vismodegib],2.04
9,NC(=O)c1cccc2cn(-c3ccc([C@@H]4CCCNC4)cc3)nc12 [niraparib],2.02

# Same assay, conditions: 0.00025 µM; days in culture: 153
row,Structure (SMILES),CTG-3D luminescence at 96 h
1,C[C@@H]1COCCN1c1cc(C2([S@](C)(=N)=O)CC2)nc(-c2cc[nH]c3nccc2-3)n1 [ceralasertib],2.07
2,CCN1CCN(Cc2ccc(Nc3ncc(F)c(-c4cc(F)c5nc(C)n(C(C)C)c5c4)n3)nc2)CC1 [abemaciclib],2.09
3,NC1(C(=O)N[C@@H](CCO)c2ccc(Cl)cc2)CCN(c2nc[nH]c3nccc2-3)CC1 [capivasertib],1.93
4,CC(C)n1nc(-c2ccc3oc(N)nc3c2)c2c(N)ncnc21 [sapanisertib],1.03
5,O=C(c1ccc(F)c(F)c1Nc1ccc(I)cc1F)N1CC(O)([C@@H]2CCCCN2)C1 [cobimetinib],1.63
6,C[C@H](NC(=O)CCC(F)(F)F)C(=O)N[C@@H]1C(=O)N(CCO)c2ncccc2-c2ccccc21 [crenigacestat],1.83
7,Cc1cc(Nc2ncc(Cl)c(Nc3ccccc3S(=O)(=O)C(C)C)n2)c(OC(C)C)cc1C1CCNCC1 [ceritinib],1.87
8,CS(=O)(=O)c1ccc(C(=O)Nc2ccc(Cl)c(-c3ccccn3)c2)c(Cl)c1 [vismodegib],1.78
9,NC(=O)c1cccc2cn(-c3ccc([C@@H]4CCCNC4)cc3)nc12 [niraparib],1.98

# Same assay, conditions: 0.00025 µM; days in culture: 172
row,Structure (SMILES),CTG-3D luminescence at 96 h
1,C[C@@H]1COCCN1c1cc(C2([S@](C)(=N)=O)CC2)nc(-c2cc[nH]c3nccc2-3)n1 [ceralasertib],1.91
2,CCN1CCN(Cc2ccc(Nc3ncc(F)c(-c4cc(F)c5nc(C)n(C(C)C)c5c4)n3)nc2)CC1 [abemaciclib],1.72
3,NC1(C(=O)N[C@@H](CCO)c2ccc(Cl)cc2)CCN(c2nc[nH]c3nccc2-3)CC1 [capivasertib],1.35
4,CC(C)n1nc(-c2ccc3oc(N)nc3c2)c2c(N)ncnc21 [sapanisertib],2.06
5,O=C(c1ccc(F)c(F)c1Nc1ccc(I)cc1F)N1CC(O)([C@@H]2CCCCN2)C1 [cobimetinib],1.92
6,C[C@H](NC(=O)CCC(F)(F)F)C(=O)N[C@@H]1C(=O)N(CCO)c2ncccc2-c2ccccc21 [crenigacestat],1.87
7,Cc1cc(Nc2ncc(Cl)c(Nc3ccccc3S(=O)(=O)C(C)C)n2)c(OC(C)C)cc1C1CCNCC1 [ceritinib],2.04
8,CS(=O)(=O)c1ccc(C(=O)Nc2ccc(Cl)c(-c3ccccn3)c2)c(Cl)c1 [vismodegib],1.87
9,NC(=O)c1cccc2cn(-c3ccc([C@@H]4CCCNC4)cc3)nc12 [niraparib],2.33

# Same assay, conditions: 0.00025 µM; days in culture: 190
row,Structure (SMILES),CTG-3D luminescence at 96 h
1,C[C@@H]1COCCN1c1cc(C2([S@](C)(=N)=O)CC2)nc(-c2cc[nH]c3nccc2-3)n1 [ceralasertib],1.14
2,CCN1CCN(Cc2ccc(Nc3ncc(F)c(-c4cc(F)c5nc(C)n(C(C)C)c5c4)n3)nc2)CC1 [abemaciclib],1.4
3,NC1(C(=O)N[C@@H](CCO)c2ccc(Cl)cc2)CCN(c2nc[nH]c3nccc2-3)CC1 [capivasertib],1.24
4,CC(C)n1nc(-c2ccc3oc(N)nc3c2)c2c(N)ncnc21 [sapanisertib],1.47
5,O=C(c1ccc(F)c(F)c1Nc1ccc(I)cc1F)N1CC(O)([C@@H]2CCCCN2)C1 [cobimetinib],1.08
6,C[C@H](NC(=O)CCC(F)(F)F)C(=O)N[C@@H]1C(=O)N(CCO)c2ncccc2-c2ccccc21 [crenigacestat],1.02
7,Cc1cc(Nc2ncc(Cl)c(Nc3ccccc3S(=O)(=O)C(C)C)n2)c(OC(C)C)cc1C1CCNCC1 [ceritinib],1.16
8,CS(=O)(=O)c1ccc(C(=O)Nc2ccc(Cl)c(-c3ccccn3)c2)c(Cl)c1 [vismodegib],1.28
9,NC(=O)c1cccc2cn(-c3ccc([C@@H]4CCCNC4)cc3)nc12 [niraparib],1.64

# Same assay, conditions: 0.00025 µM; days in culture: 199
row,Structure (SMILES),CTG-3D luminescence at 96 h
1,C[C@@H]1COCCN1c1cc(C2([S@](C)(=N)=O)CC2)nc(-c2cc[nH]c3nccc2-3)n1 [ceralasertib],1.55
2,CCN1CCN(Cc2ccc(Nc3ncc(F)c(-c4cc(F)c5nc(C)n(C(C)C)c5c4)n3)nc2)CC1 [abemaciclib],1.75
3,NC1(C(=O)N[C@@H](CCO)c2ccc(Cl)cc2)CCN(c2nc[nH]c3nccc2-3)CC1 [capivasertib],1.48
4,CC(C)n1nc(-c2ccc3oc(N)nc3c2)c2c(N)ncnc21 [sapanisertib],1.27
5,O=C(c1ccc(F)c(F)c1Nc1ccc(I)cc1F)N1CC(O)([C@@H]2CCCCN2)C1 [cobimetinib],1.48
6,C[C@H](NC(=O)CCC(F)(F)F)C(=O)N[C@@H]1C(=O)N(CCO)c2ncccc2-c2ccccc21 [crenigacestat],1.3
7,Cc1cc(Nc2ncc(Cl)c(Nc3ccccc3S(=O)(=O)C(C)C)n2)c(OC(C)C)cc1C1CCNCC1 [ceritinib],1.22
8,CS(=O)(=O)c1ccc(C(=O)Nc2ccc(Cl)c(-c3ccccn3)c2)c(Cl)c1 [vismodegib],1.97
9,NC(=O)c1cccc2cn(-c3ccc([C@@H]4CCCNC4)cc3)nc12 [niraparib],2.05
